For orientation: Ki means the dissociation constant of the complex between target and ligand, obtained from inhibition or displacement.

The subject of the first experiment is H929 human cancer cell lines. Nature of the experiment: Cellular viability / proliferation (Cell TiterGlo, 72 h). Particulars: H929 cells, 72 h, Cell TiterGlo, 10% FBS; read-out: GI50 on cellular proliferation of H929 human cancer cell lines. The class given is cell-based. How it is done: Cellular Viability of Human Tumor Cell Lines
To evaluate compound effect on cellular proliferation, cells were plated at 1,000 cells/well in 96-well tissue culture plates in a total volume of 90 μL medium supplemented with 10% FBS (Sigma, Saint Louis, Mo.). 24 hours later, 10 μL of compound (in a 2-fold serial dilution) is added to the cells for a top concentration of 50 μM and a final DMSO concentration <1%. After 72 hours, 50 μL of Cell TiterGlo (Promega, Madison, Wis., USA) reagent is added to each well and plates are incubated at room temperature, in the dark, for 30 minutes. Luminescence is measured on a BioTek Cytation 3. Luminescence values are imported into a template in XLFit (Guildford, Surrey, UK) that uses a four-parameter fit to generate an IC50 value for each compound dilution series on the plate.
For `COc1ccc(N2C[C@@H](C)n3c(c(CCCOc4cc(C)c(Cl)c(C)c4)c4ccc(Cl)c(-c5c(C)nn(C)c5C)c43)C2=O)c2c1c(C(=O)O)cn2Cc1cccc(C)n1` [Example 621, (R)-7-(7-chloro-10-(3-(4-chloro-3,5-dimethylphenoxy)propyl)-4-methyl-1-oxo-6-(1,3,5-trimethyl-1H-pyrazol-4-yl)-3,4-dihydropyrazino[1,2-a]indol-2(1H)-yl)-4-methoxy-1-((6-methylpyridin-2-yl)methyl)-1H-indole-3-carboxylic add], the GI50 is 390 nM.

Staying with this experiment, now noted: Homo sapiens, NCI-H929, 72 h, read-out: GI50 on cellular proliferation of H929 human cancer cell lines, H929 cells, 72 h, Cell TiterGlo, 10% FBS.
`Cc1cc(OCCCc2c3n(c4c(-c5c(C)nn(C)c5C)c(Cl)ccc24)CCCN(c2cc(C(=O)O)c4ccn(C)c4c2)C3=O)cc(C)c1Cl` (single isomer, unassigned) [Example 431, 6-(8-Chloro-11-(3-(4-chloro-3,5-dimethylphenoxy)propyl)-1-oxo-7-(1,3,5-trimethyl-1H-pyrazol-4-yl)-4,5-dihydro-1H-[1,4]diazepino[1,2-a]indol-2(3H)-yl)-1-methyl-1H-indole-4-carboxylic acid]: the GI50 worked out at 2900 nM. The same measure, in the same setting: the value for `Cc1cc(OCCCc2c3n(c4c(-c5c(C)nn(C)c5C)c(Cl)ccc24)[C@H](C)CN(c2cn(C)c4ccc(C(=O)O)cc24)C3=O)cc(C)c1Cl` [Example 76, (R)-3-(7-Chloro-10-(3-(4-chloro-3,5-dimethylphenoxy)propyl)-4-methyl-1-oxo-6-(1,3,5-trimethyl-1H-pyrazol-4-yl)-3,4-dihydropyrazino[1,2-a]indol-2(1H)-yl)-1-methyl-1H-indole-5-carboxylic acid] was under 200 nM. Same read-out and setting: the value for `Cc1cc(OCCCc2c3n(c4c(-c5c(C)n[nH]c5C)c(Cl)ccc24)[C@H](C)CN(c2cccc4c(C(=O)O)cn(C)c24)C3=O)cc(C)c1Cl` [Example 108, (R)-7-(7-chloro-10-(3-(4-chloro-3,5-dimethylphenoxy)propyl)-6-(3,5-dimethyl-1H-pyrazol-4-yl)-4-methyl-1-oxo-3,4-dihydropyrazino[1,2-a]indol-2(1H)-yl)-1-methyl-1H-indole-3-carboxylic acid] was 880 nM; that for `COCCn1c(C(=O)O)cc2cc(C)cc(N3C[C@@H](C)n4c(c(CCCOc5cc(C)c(Cl)c(C)c5)c5ccc(Cl)c(-c6c(C)nc(CN7CCN(C)C(=O)C7)nc6C)c54)C3=O)c21` [Example 729, (R)-7-(7-chloro-10-(3-(4-chloro-3,5-dimethylphenoxy)propyl)-6-(4,6-dimethyl-2-((4-methyl-3-oxopiperazin-1-yl)methyl)pyrimidin-5-yl)-4-methyl-1-oxo-3,4-dihydropyrazino[1,2-a]indol-2(1H)-yl)-1-(2-methoxyethyl)-5-methyl-1H-indole-2-carboxylic acid] was 260 nM.

The target in a further experiment is Mcl-1 (Homo sapiens (Human), UniProt Q07820). The experiment can be described thus: Fluorescence polarization anisotropy (FPA) competition assay, FITC-Bak or FITC-Bim BH3 peptide. The class given is binding. To be noted: read-out: Ki for Inhibition of Mcl-1 by FPA assay. For orientation: Polarisation of emitted light reports the rotation of a fluorescent probe.
Mcl-1, sequence (Q07820 172-327): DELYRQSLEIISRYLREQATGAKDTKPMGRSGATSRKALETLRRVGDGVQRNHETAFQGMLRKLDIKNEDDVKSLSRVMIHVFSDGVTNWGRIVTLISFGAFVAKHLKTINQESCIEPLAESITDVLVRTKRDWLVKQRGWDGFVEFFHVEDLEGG
For the compound `CC[C@@H]1Cn2c(c(CCCOc3cc(C)c(Cl)c(C)c3)c3ccc(Cl)c(-c4c(C)nn(C)c4C)c32)C(=O)N1` [Example 24, (R)-7-chloro-10-(3-(4-chloro-3,5-dimethylphenoxy)propyl)-3-ethyl-6-(1,3,5-trimethyl-1H-pyrazol-4-yl)-3,4-dihydropyrazino[1,2-a]indol-1(2H)-one], the Ki came out at 25 nM. The same measure, in the same setting: the figure for `Cc1cc(OCCCc2c3n(c4c(-c5c(C)nn(C)c5C)c(Cl)ccc24)[C@H](C)CN(c2cn(C)c4cc(C(F)(F)F)ccc24)C3=O)cc(C)c1Cl` [Example 199, (4R)-7-chloro-10-[3-(4-chloro-3,5-dimethyl-phenoxy)propyl]-4-methyl-2-[1-methyl-6-(trifluoromethyl)indol-3-yl]-6-(1,3,5-trimethylpyrazol-4-yl)-3,4-dihydropyrazino[1,2-a]indol-1-one] is 12 nM; for `Cc1cc(OCCCc2c3n(c4c(-c5c(C)nn(C)c5C)c(Cl)ccc24)[C@H](C)CN(c2nc4cc(C(=O)O)ccn4n2)C3=O)cc(C)c1Cl` [Example 135, (R)-2-(7-chloro-10-(3-(4-chloro-3,5-dimethylphenoxy)propyl)-4-methyl-1-oxo-6-(1,3,5-trimethyl-1H-pyrazol-4-yl)-3,4-dihydropyrazino[1,2-a]indol-2(1H)-yl)-[1,2,4]triazolo[1,5-a]pyridine-7-carboxylic acid] it is under 1 nM; for `Cc1cc(OCCCc2c3n(c4c(-c5c(C)nn(C)c5C)c(Cl)ccc24)CCCN(Cc2cc(C(=O)O)cc(N4CCN(S(=O)(=O)C5CC5)CC4)n2)C3=O)cc(C)c1Cl` [Example 47, 2-((8-Chloro-11-(3-(4-chloro-3,5-dimethylphenoxy)propyl)-1-oxo-7-(1,3,5-trimethyl-1H-pyrazol-4-yl)-4,5-dihydro-1H-[1,4]diazepino[1,2-a]indol-2(3H)-yl)methyl)-6-(4-(cyclopropylsulfonyl)piperazin-1-yl)isonicotinic acid] it is 19 nM.

With `Cc1cc(OCCCc2c3n(c4c(-c5c(C)nn(C)c5C)c(Cl)ccc24)[C@H](C)CN(c2cn(C)c4ccc(C(F)(F)F)cc24)C3=O)cc(C)c1Cl` (single isomer, unassigned) [Example 200], the Ki was found to be 6.6 nM. In the case of `Cc1cc(OCCCc2c(C(=O)NCc3cccc(C(=O)O)c3)[nH]c3c(-c4c(C)ncnc4C)c(Cl)ccc23)cc(C)c1Cl` [Example 748, 3-[[[6-Chloro-3-[3-(4-chloro-3,5-dimethyl-phenoxy)propyl]-7-(4,6-dimethylpyrimidin-5-yl)-1H-indole-2-carbonyl]amino]methyl]benzoic acid], the Ki was determined as 6.3 nM.

With `Cc1cc(OCCCc2c3n(c4c(-c5c(C)nn(C)c5C)c(Cl)ccc24)[C@H](C)CN(c2ccc(F)c4cc[nH]c24)C3=O)cc(C)c1Cl` [Example 446, (R)-7-Chloro-10-(3-(4-chloro-3,5-dimethylphenoxy)propyl)-2-(4-fluoro-1H-indol-7-yl)-4-methyl-6-(1,3,5-trimethyl-1H-pyrazol-4-yl)-3,4-dihydropyrazino[1,2-a]indol-1(2H)-one], the Ki was determined as 8.2 nM. On to `COc1ccc(N2C[C@@H](C)n3c(c(CCCOc4cc(C)c(Cl)c(C)c4)c4ccc(Cl)c(-c5c(C)nn(C)c5C)c43)C2=O)c2c1c(C)c(C(N)=O)n2C` [Example 411, (R)-7-(7-Chloro-10-(3-(4-chloro-3,5-dimethylphenoxy)propyl)-4-methyl-1-oxo-6-(1,3,5-trimethyl-1H-pyrazol-4-yl)-3,4-dihydropyrazino[1,2-a]indol-2(1H)-yl)-4-methoxy-1,3-dimethyl-1H-indole-2-carboxamide], for which the Ki came to 5.6 nM. `Cc1cc(OCCCc2c(C(=O)N(C)c3cccc(C(=O)O)c3)n(CCN3CCOCC3)c3c(-c4c(C)nn(C)c4C)c(Cl)ccc23)cc(C)c1Cl` [Example 730, 3-[[6-chloro-3-[3-(4-chloro-3,5-dimethyl-phenoxy)propyl]-1-(2-morpholinoethyl)-7-(1,3,5-trimethylpyrazol-4-yl)indole-2-carbonyl]-methyl-amino]benzoic acid]: the Ki turned out to be 20 nM. Turning to `COc1ccc(N2C[C@@H](C)n3c(c(CCCOc4cc(C)c(Cl)c(C)c4)c4ccc(Cl)c(-c5c(C)nn(C)c5C)c43)C2=O)c2c1c(C)c(C(=O)O)n2C` [Example 351, (R)-7-(7-Chloro-10-(3-(4-chloro-3,5-dimethylphenoxy)propyl)-4-methyl-1-oxo-6-(1,3,5-trimethyl-1H-pyrazol-4-yl)-3,4-dihydropyrazino[1,2-a]indol-2(1H)-yl)-4-methoxy-1,3-dimethyl-1H-indole-2-carboxylic acid], the Ki was under 1 nM. Regarding `Cc1cc(OCCCc2c3n(c4c(-c5c(C)nn(C)c5C)c(Cl)ccc24)CCCN(c2cc(C(=O)O)cc4c2cnn4CCN(C)C)C3=O)cc(C)c1Cl` [Example 40, 4-[8-Chloro-11-[3-(4-chloro-3,5-dimethyl-phenoxy)propyl]-1-oxo-7-(1,3,5-trimethylpyrazol-4-yl)-4,5-dihydro-3H-[1,4]diazepino[1,2-a]indol-2-yl]-1-[2-(dimethylamino)ethyl]indazole-6-carboxylic acid], the Ki was determined as 3.9 nM. Take `Cc1cc(CCCCc2c(C(=O)N3CCN(c4cncc(C(=O)O)c4)CC3)[nH]c3c(-c4c(C)nn(C)c4C)c(Cl)ccc23)cc(C)c1Cl` [Example 740, 5-(4-(6-Chloro-3-(4-(4-chloro-3,5-dimethylphenyl)butyl)-7-(1,3,5-trimethyl-1H-pyrazol-4-yl)-1H-indole-2-carbonyl)piperazin-1-yl)nicotinic acid]: the Ki amounted to 85 nM. On the same count and under the same terms, the value for `Cc1cc(CCCCc2c(C(=O)N3CCN(c4ccc(C(=O)O)nc4)CC3)n(Cc3cccnc3)c3c(-c4c(C)nn(C)c4C)c(Cl)ccc23)cc(C)c1Cl` [Example 737, 5-(4-(6-Chloro-3-(4-(4-chloro-3,5-dimethylphenyl)butyl)-1-(pyridin-3-ylmethyl)-7-(1,3,5-trimethyl-1H-pyrazol-4-yl)-1H-indole-2-carbonyl)piperazin-1-yl)picolinic acid] was 140 nM. With `Cc1cc(OCCCc2c3n(c4c(-c5c(C)nn(C)c5C)c(Cl)ccc24)[C@H](C)CN(c2ccc4c(C(=O)O)nn(C)c4c2)C3=O)cc(C)c1Cl` [Example 121, (R)-6-(7-Chloro-10-(3-(4-chloro-3,5-dimethylphenoxy)propyl)-4-methyl-1-oxo-6-(1,3,5-trimethyl-1H-pyrazol-4-yl)-3,4-dihydropyrazino[1,2-a]indol-2(1H)-yl)-1-methyl-1H-indazole-3-carboxylic acid], the Ki stood at 1.9 nM.

The values are drawn from patent US11596639B2, “Substituted indole Mcl-1 inhibitors” (Vanderbilt University, priority 2016, dated 2023).
